Laboratory results reported in patent US20120108557A1, “FLUOROQUINOLONE DERIVATIVES FOR OPHTHALMIC APPLICATIONS” (ALCON RESEARCH, LTD., priority 2008, published 2012).

Legend:
Assay type in all cases: cell-based
[1] = system: microorganisms; assay: In vitro antimicrobial activity test, whole panel of test organisms; conditions: across the test organisms of TABLE 3
Procedure: (§1) The activity of the compounds of the present invention was evaluated using an in vitro assay. Microorganisms were prepared from growth on agar media, in broth culture, or from thawed cryopreserved cultures. Fungal cultures were filtered to remove mycelial elements.
(§2) Using Mueller Hinton II Broth, 0.9% saline or other appropriate media, a suspension of each culture was prepared and adjusted to a turbidity equivalent to that of a 0.5 McFarland Standard. (Cultures adjusted to the 0.5 McFarland Standard generally contain approximately 1.0×10^8 CFU/mL). The adjusted suspension for each culture was diluted 1:10 in the appropriate media so that the inoculum concentration approximates 1.0×10^7 CFU/mL.
(§3) The antimicrobial agent to be tested was weighed and diluted with a volume of sterile distilled water calculated to yield the necessary starting concentration. Serial 1:2 dilutions of the antimicrobial agent in sterile distilled water were prepared (approximately 10-12 test concentrations comprise a reasonable experimental range). A known amount of each antimicrobial dilution was combined with an aliquot of agar medium calculated to yield the desired final antimicrobial test concentration and dispensed onto plates.
(§4) The amount of antimicrobial agent to be weighed was determined using the following equation: […]
(§5) Antimicrobial stock solutions were prepared at concentrations 5-10 times the highest concentration to be tested (routinely 1024 μg/mL). […] The stock solution was diluted to appropriate concentration using sterile water to form a working solution. The working solution was diluted two-fold, in sterile water, until the desired concentration is obtained.
Mueller Hinton II agar was prepared as described by the manufacturer. Mueller Hinton II agar may be supplemented with 5% defibrinated sheep blood for testing streptococci. Agar was added to the serially diluted antimicrobial solution in each container. The solutions were mixed thoroughly and poured into petri dishes (about 25 mL/plate). The pH of the agar at 25° C. should be between 7.2 and 7.4. […]

[2] = system: Acinetobacter baumannii; assay: In vitro antimicrobial activity, agar dilution MIC; conditions: test organism 26, Acinetobacter baumannii
Procedure: as §1, §2, §3, §4, §5
(§6) Mueller Hinton II agar was prepared as described by the manufacturer. Mueller Hinton II agar may be supplemented with 5% defibrinated sheep blood for testing streptococci. Agar was added to the serially diluted antimicrobial solution in each container. The solutions were mixed thoroughly and poured into petri dishes (about 25 mL/plate). The pH of the agar at 25° C. should be between 7.2 and 7.4.
(§7) At least one inocula control plate was inoculated (agar medium without antimicrobial agent) from each seed plate before inoculating test plates. Test plates were inoculated starting at the lowest concentration and proceeding to the highest concentration. After all test plates were inoculated, an additional control plate (agar medium without antimicrobial agent) was inoculated. The plates were incubated in a non-CO2 incubator (or CO2 incubator depending on growth requirements); 18-24 hours at 32-35° C. was sufficient for most organisms.
(§8) All inoculation points on the agar surface were examined for the presence of growth as compared to the inoculum control plates. The results were summarized and use to determine Minimal Inhibitory Concentrations (MICs): The MIC is the lowest concentration of the antimicrobial agent which prevents visible growth of the organism (negative score).

[3] = system: Acinetobacter junii; assay: In vitro antimicrobial activity, agar dilution MIC
Procedure: as §1, §2, §3, §4, §5, §6, §7, §8

[4] = system: Corynebacterium amycolatum; assay: In vitro antimicrobial activity, agar dilution MIC
Procedure: as §1, §2, §3, §4, §5, §6, §7, §8

[5] = system: Enterobacter hormaechei; assay: In vitro antimicrobial activity, agar dilution MIC; conditions: test organism 31, Enterobacter hormaechei
Procedure: as §1, §2, §3, §4, §5, §6, §7, §8

[6] = system: Enterococcus faecalis; assay: In vitro antimicrobial activity, agar dilution MIC
Procedure: as §1, §2, §3, §4, §5, §6, §7, §8

[7] = system: Escherichia coli; assay: In vitro antimicrobial activity, agar dilution MIC
Procedure: as §1, §2, §3, §4, §5, §6, §7, §8

[8] = system: MRSA; assay: In vitro antimicrobial activity, agar dilution MIC
Procedure: as §1, §2, §3, §4, §5, §6, §7, §8

[9] = system: MRSE; assay: In vitro antimicrobial activity, agar dilution MIC
Procedure: as §1, §2, §3, §4, §5, §6, §7, §8

[10] = system: MSSA; assay: In vitro antimicrobial activity, agar dilution MIC; conditions: test organism 6, MSSA
Procedure: as §1, §2, §3, §4, §5, §6, §7, §8

[11] = system: Morganella morganii; assay: In vitro antimicrobial activity, agar dilution MIC
Procedure: as §1, §2, §3, §4, §5, §6, §7, §8

[12] = system: Pseudomonas aeruginosa; assay: In vitro antimicrobial activity, agar dilution MIC
Procedure: as §1, §2, §3, §4, §5, §6, §7, §8

[13] = system: Serratia marcescens; assay: In vitro antimicrobial activity, agar dilution MIC
Procedure: as §1, §2, §3, §4, §5, §6, §7, §8

[14] = system: Staphylococcus aureus; assay: In vitro antimicrobial activity, agar dilution MIC
Procedure: as §1, §2, §3, §4, §5, §6, §7, §8

[15] = system: Staphylococcus epidermidis; assay: In vitro antimicrobial activity, agar dilution MIC
Procedure: as §1, §2, §3, §4, §5, §6, §7, §8

[16] = system: Staphylococcus haemolyticus; assay: In vitro antimicrobial activity, agar dilution MIC
Procedure: as §1, §2, §3, §4, §5, §6, §7, §8

[17] = system: Stenotrophomonas maltophilia; assay: In vitro antimicrobial activity, agar dilution MIC
Procedure: as §1, §2, §3, §4, §5, §6, §7, §8

[18] = system: Streptococcus mitis; assay: In vitro antimicrobial activity, agar dilution MIC
Procedure: as §1, §2, §3, §4, §5, §6, §7, §8

[19] = system: Streptococcus pneumoniae; assay: In vitro antimicrobial activity, agar dilution MIC
Procedure: as §1, §2, §3, §4, §5, §6, §7, §8

For `Nc1c(F)c(N2CC3CCCNC3C2)c(F)c2c1c(=O)c(C(=O)O)cn2C1CC1` (stereo not drawn) [Compound 3], the “antimicrobial activity compared to moxifloxacin (in words)” value [1] was “showed increased antimicrobial activity against most microorganisms”.
For moxifloxacin [reference compound], the “Minimal Inhibitory Concentration (MIC)” value [2] was “≦0.25”, the “Minimal Inhibitory Concentration (MIC)” value ([3]; test organism 27, Acinetobacter junii) was “≦0.25” and the “Minimal Inhibitory Concentration (MIC)” value ([3]; test organism 28, Acinetobacter junii) was 0.25. For the same molecule, the “Minimal Inhibitory Concentration (MIC)” value ([3]; test organism 29, Acinetobacter junii) was greater than 4, the “Minimal Inhibitory Concentration (MIC)” value ([4]; test organism 24, Corynebacterium amycolatum) was 0.03 and the “Minimal Inhibitory Concentration (MIC)” value ([4]; test organism 25, Corynebacterium amycolatum) was greater than 4. For the same molecule, the “Minimal Inhibitory Concentration (MIC)” value [5] was greater than 4, the “Minimal Inhibitory Concentration (MIC)” value ([6]; test organism 15, Enterococcus faecalis) was 0.5 and the “Minimal Inhibitory Concentration (MIC)” value ([6]; test organism 16, Enterococcus faecalis) was “≦0.25”. The “Minimal Inhibitory Concentration (MIC)” value ([6]; test organism 17, Enterococcus faecalis) was greater than 4, the “Minimal Inhibitory Concentration (MIC)” value ([6]; test organism 18, Enterococcus faecalis) was greater than 2 and the “Minimal Inhibitory Concentration (MIC)” value ([7]; test organism 32, Escherichia coli) was 0.125. The “Minimal Inhibitory Concentration (MIC)” value ([7]; test organism 33, Escherichia coli) was “≦0.25”, the “Minimal Inhibitory Concentration (MIC)” value ([7]; test organism 34, Escherichia coli) was greater than 4 and the “Minimal Inhibitory Concentration (MIC)” value ([8]; test organism 3, MRSA) was 2. The “Minimal Inhibitory Concentration (MIC)” value ([8]; test organism 4, MRSA) was 4, the “Minimal Inhibitory Concentration (MIC)” value ([8]; test organism 5, MRSA) was greater than 2 and the “Minimal Inhibitory Concentration (MIC)” value ([9]; test organism 9, MRSE) was greater than 2. For the same molecule, the “Minimal Inhibitory Concentration (MIC)” value ([9]; test organism 10, MRSE) was greater than 2, the “Minimal Inhibitory Concentration (MIC)” value ([9]; test organism 11, MRSE) was greater than 4 and the “Minimal Inhibitory Concentration (MIC)” value [10] was greater than 4. For the same molecule, the “Minimal Inhibitory Concentration (MIC)” value ([11]; test organism 35, Morganella morganii) was 0.5, the “Minimal Inhibitory Concentration (MIC)” value ([11]; test organism 36, Morganella morganii) was 4 and the “Minimal Inhibitory Concentration (MIC)” value ([12]; test organism 37, Pseudomonas aeruginosa) was greater than 4. For the same molecule, the “Minimal Inhibitory Concentration (MIC)” value ([12]; test organism 38, Pseudomonas aeruginosa) was 4, the “Minimal Inhibitory Concentration (MIC)” value ([13]; test organism 39, Serratia marcescens) was 2 and the “Minimal Inhibitory Concentration (MIC)” value ([13]; test organism 40, Serratia marcescens) was 2. The “Minimal Inhibitory Concentration (MIC)” value ([14]; test organism 1, Staphylococcus aureus) was 0.06, the “Minimal Inhibitory Concentration (MIC)” value ([14]; test organism 2, Staphylococcus aureus) was “≦0.25” and the “Minimal Inhibitory Concentration (MIC)” value ([15]; test organism 7, Staphylococcus epidermidis) was 0.06. The “Minimal Inhibitory Concentration (MIC)” value ([15]; test organism 8, Staphylococcus epidermidis) was 1, the “Minimal Inhibitory Concentration (MIC)” value ([16]; test organism 12, Staphylococcus haemolyticus) was 0.5 and the “Minimal Inhibitory Concentration (MIC)” value ([16]; test organism 13, Staphylococcus haemolyticus) was 2. For the same molecule, the “Minimal Inhibitory Concentration (MIC)” value ([16]; test organism 14, Staphylococcus haemolyticus) was greater than 4, the “Minimal Inhibitory Concentration (MIC)” value ([17]; test organism 41, Stenotrophomonas maltophilia) was greater than 4 and the “Minimal Inhibitory Concentration (MIC)” value ([17]; test organism 42, Stenotrophomonas maltophilia) was 0.125. The “Minimal Inhibitory Concentration (MIC)” value ([18]; test organism 21, Streptococcus mitis) was “≦0.25”, the “Minimal Inhibitory Concentration (MIC)” value ([18]; test organism 22, Streptococcus mitis) was 0.125 and the “Minimal Inhibitory Concentration (MIC)” value ([18]; test organism 23, Streptococcus mitis) was 4. The “Minimal Inhibitory Concentration (MIC)” value ([19]; test organism 19, Streptococcus pneumoniae) was 0.25 and the “Minimal Inhibitory Concentration (MIC)” value ([19]; test organism 20, Streptococcus pneumoniae) was “≦0.25”.
